{
  "source": "patent US8889704B2",
  "about": "(Array BioPharma Inc., priority 2011, dated 2014)",
  "assay_type_in_all_cases": "biochemical",
  "key": {"recombinant rat PIM-3": {"target": "recombinant rat PIM-3 (Rattus norvegicus, UniProt O70444)", "assay": "PIM-3 Assay (as Example A)", "conditions": "averaged IC50; 30 μM ATP, 3.75 μM PIM2tide, 0.5 nM PIM-3", "method_in_brief": "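Recombinant rat PIM-3 (0.5 nM) with 3.75 μM PIM2tide and 30 μM [γ-33P]ATP in MOPS pH 7.4 buffer, 60 min at 22 °C; labelled peptide captured on phosphocellulose filters and counted by scintillation. 10-point curve (top dose 10 μM, 2% DMSO); IC50 from 4-parameter fit of percent of control.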"}, "[1]": {"target": "T1, GST-tagged recombinant full-length human Pim-2 (Homo sapiens, UniProt Q9P1W9)", "T1 construct": "GST-tagged recombinant full-length human Pim-2; GST", "T1 sequence (Q9P1W9 whole entry)": "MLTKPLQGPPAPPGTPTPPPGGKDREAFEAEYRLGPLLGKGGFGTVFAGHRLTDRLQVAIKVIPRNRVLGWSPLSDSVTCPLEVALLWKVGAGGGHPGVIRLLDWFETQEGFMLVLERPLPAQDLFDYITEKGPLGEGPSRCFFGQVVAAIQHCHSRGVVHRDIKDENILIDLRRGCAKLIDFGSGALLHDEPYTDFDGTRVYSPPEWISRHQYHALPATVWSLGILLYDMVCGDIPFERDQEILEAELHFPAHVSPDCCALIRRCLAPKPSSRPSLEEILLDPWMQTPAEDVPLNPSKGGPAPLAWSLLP", "assay": "PIM-2 Assay (as Example A)", "conditions": "averaged IC50; 4 μM ATP, 1.0 μM PIM2tide, 1.5 nM Pim-2", "method_in_brief": "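Radiometric filter-binding assay: GST-tagged full-length human Pim-2 (1.5 nM) phosphorylates 1.0 μM PIM2tide with 4 μM [γ-33P]ATP for 60 min at 22 °C in pH 7.4 MOPS buffer, 2% DMSO. 10-point 3-fold dilutions from 10 μM top dose; IC50 from 4-parameter fit of percent of control.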"}, "PIM-1": {"target": "PIM-1 (Homo sapiens, UniProt P11309)", "sequence (P11309 whole entry, species assumed)": "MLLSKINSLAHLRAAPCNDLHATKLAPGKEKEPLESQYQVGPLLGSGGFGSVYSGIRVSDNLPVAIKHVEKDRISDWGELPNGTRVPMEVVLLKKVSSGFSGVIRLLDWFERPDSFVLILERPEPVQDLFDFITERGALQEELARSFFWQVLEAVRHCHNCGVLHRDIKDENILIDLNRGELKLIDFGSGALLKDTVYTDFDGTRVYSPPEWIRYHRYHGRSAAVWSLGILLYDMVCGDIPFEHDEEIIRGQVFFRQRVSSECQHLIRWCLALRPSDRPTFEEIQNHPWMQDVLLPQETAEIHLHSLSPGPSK", "assay": "Enzyme PIM-1 Assay ([33P]ATP incorporation into PIM2tide, filter plate)", "conditions": "averaged IC50; 35 μM ATP, 7.5 μM PIM2tide, 0.25 nM PIM-1, 60 min at 22° C.", "method_in_brief": "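Radiometric assay: 0.25 nM PIM-1 phosphorylates 7.5 μM PIM2tide with 35 μM [γ-33P]ATP in 20 mM MOPS pH 7.4, 10 mM MgCl2, 1 mM DTT, 0.005% Tween-20, 60 min at 22 °C. Product captured on P81 filters, scintillation counted; 10-point 3-fold curve from 10 μM top, 2% DMSO, IC50 by 4-parameter logistic fit of POC.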"}},
  "note": "pIC50: −log10 of the molar value. Structures can show the parent of a compound that is named as a salt.",
  "data": [
    {"compound": "C[C@H](CO)Oc1cccc2ccc(-c3nnc4ccc([C@@H](N5CC[C@H](N)C5)C(F)(F)F)cn34)nc12", "note": "[Example 186, (R)-2-(2-(6-((R)-1-((S)-3-aminopyrrolidin-1-yl)-2,2,2-trifluoroethyl)-[1,2,4]triazolo[4,3-a]pyridin-3-yl)quinolin-8-yloxy)propan-1-ol dihydrochloride]", "values": [
      {"measurement": "pIC50", "setting": "recombinant rat PIM-3", "result": 9.40},
      {"measurement": "pIC50", "setting": "[1]", "result": 7.17},
      {"measurement": "pIC50", "setting": "PIM-1", "result": 9.80}
    ]},
    {"compound": "CC(C)Oc1cc(F)cc2ccc(-c3nnc4ccc([C@H](N5CC[C@](C)(N)C5)C(F)(F)F)cn34)nc12", "note": "[Example 216, (S)-3-methyl-1-((S)-2,2,2-trifluoro-1-(3-(6-fluoro-8-isopropoxyquinolin-2-yl)-[1,2,4]triazolo[4,3-a]pyridin-6-yl)ethyl)pyrrolidin-3-amine dihydrochloride]", "values": [
      {"measurement": "pIC50", "setting": "recombinant rat PIM-3", "result": 9.10},
      {"measurement": "pIC50", "setting": "[1]", "result": 7.25},
      {"measurement": "pIC50", "setting": "PIM-1", "result": 9.42}
    ]},
    {"compound": "N[C@@H]1CN([C@H](c2ccc3nnc(-c4ccc5cc(F)cc(C6CC6)c5n4)n3c2)C(F)(F)F)C[C@H]1O", "note": "[Example 181, (3R,4R)-4-amino-1-((R)-1-(3-(8-cyclopropyl-6-fluoroquinolin-2-yl)-[1,2,4]triazolo[4,3-a]pyridin-6-yl)-2,2,2-trifluoroethyl)pyrrolidin-3-ol dihydrochloride]", "values": [
      {"measurement": "pIC50", "setting": "recombinant rat PIM-3", "result": 8.57},
      {"measurement": "pIC50", "setting": "[1]", "result": 7.02},
      {"measurement": "pIC50", "setting": "PIM-1", "result": 9.39}
    ]},
    {"compound": "COCCOc1ccc2ccc(-c3nnc4ccc([C@@H](N5CC[C@](C)(N)C5)C(F)(F)F)cn34)nc2c1", "note": "[Example 261, (S)-3-methyl-1-((R)-2,2,2-trifluoro-1-(3-(7-(2-methoxyethoxy)quinolin-2-yl)-[1,2,4]triazolo[4,3-a]pyridin-6-yl)ethyl)pyrrolidin-3-amine dihydrochloride]", "values": [
      {"measurement": "pIC50", "setting": "recombinant rat PIM-3", "result": 8.48},
      {"measurement": "pIC50", "setting": "[1]", "result": "< 6.00"},
      {"measurement": "pIC50", "setting": "PIM-1", "result": 9.22}
    ]},
    {"compound": "Cn1cc(-c2ccc3ccc(-c4nnc5ccc(C(N6CC[C@H](N)C6)C(F)(F)F)cn45)nc3c2)cn1", "note": "(stereo partly drawn) [Example 4, (3S)-1-(2,2,2-trifluoro-1-(3-(7-(1-methyl-1H-pyrazol-4-yl)quinolin-2-yl)-[1,2,4]triazolo[4,3-a]pyridin-6-yl)ethyl)pyrrolidin-3-amine trihydrochloride]", "values": [
      {"measurement": "pIC50", "setting": "recombinant rat PIM-3", "result": 7.92},
      {"measurement": "pIC50", "setting": "[1]", "result": 6.35},
      {"measurement": "pIC50", "setting": "PIM-1", "result": 9.08}
    ]},
    {"compound": "COCCOc1cc2nc(-c3nnc4ccc([C@H](N5CC[C@](C)(N)C5)C(F)(F)F)cn34)ccc2cc1F", "note": "[Example 298, (S)-3-methyl-1-((S)-2,2,2-trifluoro-1-(3-(6-fluoro-7-(2-methoxyethoxy)quinolin-2-yl)-[1,2,4]triazolo[4,3-a]pyridin-6-yl)ethyl)pyrrolidin-3-amine dihydrochloride]", "values": [
      {"measurement": "pIC50", "setting": "recombinant rat PIM-3", "result": 9.40},
      {"measurement": "pIC50", "setting": "[1]", "result": 7.23},
      {"measurement": "pIC50", "setting": "PIM-1", "result": 9.57}
    ]},
    {"compound": "CC(C)NC(=O)c1cccc2ccc(-c3nnc4ccc([C@@H](N5CC[C@H](N)C5)C(F)(F)F)cn34)nc12", "note": "[Example 87, 2-(6-((R)-1-((S)-3-aminopyrrolidin-1-yl)-2,2,2-trifluoroethyl)-[1,2,4]triazolo[4,3-a]pyridin-3-yl)-N-isopropylquinoline-8-carboxamide dihydrochloride]", "values": [
      {"measurement": "pIC50", "setting": "recombinant rat PIM-3", "result": "< 7.00"},
      {"measurement": "pIC50", "setting": "[1]", "result": "< 7.00"},
      {"measurement": "pIC50", "setting": "PIM-1", "result": 7.45}
    ]},
    {"compound": "COCC(C)(C)c1cccc2ccc(-c3nnc4ccc([C@@H](N5CC[C@H](N)C5)C(F)(F)F)cn34)nc12", "note": "[Example 105, (S)-1-((R)-2,2,2-trifluoro-1-(3-(8-(1-methoxy-2-methylpropan-2-yl)quinolin-2-yl)-[1,2,4]triazolo[4,3-a]pyridin-6-yl)ethyl)pyrrolidin-3-amine dihydrochloride]", "values": [
      {"measurement": "pIC50", "setting": "recombinant rat PIM-3", "result": 9.15},
      {"measurement": "pIC50", "setting": "[1]", "result": 7.89},
      {"measurement": "pIC50", "setting": "PIM-1", "result": 10.40}
    ]},
    {"compound": "CO[C@@H](C)COc1cc2nc(-c3nnc4ccc([C@@H](N5CC[C@H](N)C5)C(F)(F)F)cn34)ccc2cc1F", "note": "[Example 323, (S)-1-((R)-2,2,2-trifluoro-1-(3-(6-fluoro-7-((S)-2-methoxypropoxy)quinolin-2-yl)-[1,2,4]triazolo[4,3-a]pyridin-6-yl)ethyl)pyrrolidin-3-amine di-hydrochloride]", "values": [
      {"measurement": "pIC50", "setting": "recombinant rat PIM-3", "result": 9.70},
      {"measurement": "pIC50", "setting": "[1]", "result": 6.84},
      {"measurement": "pIC50", "setting": "PIM-1", "result": 9.85}
    ]},
    {"compound": "N[C@H]1CCN([C@H](c2ccc3nnc(-c4ccc5cc(F)c(OCC(F)(F)F)cc5n4)n3c2)C(F)(F)F)C1", "note": "[Example 226, (S)-1-((R)-2,2,2-trifluoro-1-(3-(6-fluoro-7-(2,2,2-trifluoroethoxy)quinolin-2-yl)-[1,2,4]triazolo[4,3-a]pyridin-6-yl)ethyl)pyrrolidin-3-amine dihydrochloride]", "values": [
      {"measurement": "pIC50", "setting": "recombinant rat PIM-3", "result": 9.30},
      {"measurement": "pIC50", "setting": "[1]", "result": 6.63},
      {"measurement": "pIC50", "setting": "PIM-1", "result": 9.57}
    ]},
    {"compound": "N[C@H]1CCN([C@H](c2ccc3nnc(-c4ccc5cc(F)cc(OCC(F)(F)F)c5n4)n3c2)C(F)(F)F)C1", "note": "[Example 232, (S)-1-((R)-2,2,2-trifluoro-1-(3-(6-fluoro-8-(2,2,2-trifluoroethoxy)quinolin-2-yl)-[1,2,4]triazolo[4,3-a]pyridin-6-yl)ethyl)pyrrolidin-3-amine dihydrochloride]", "values": [
      {"measurement": "pIC50", "setting": "recombinant rat PIM-3", "result": 9.10},
      {"measurement": "pIC50", "setting": "[1]", "result": 6.69},
      {"measurement": "pIC50", "setting": "PIM-1", "result": 9.70}
    ]},
    {"compound": "CCOCCOc1ccc2ccc(-c3nnc4ccc([C@@H](N5CC[C@H](N)C5)C(F)(F)F)cn34)nc2c1", "note": "[Example 274, (S)-1-((R)-1-(3-(7-(2-ethoxyethoxy)quinolin-2-yl)-[1,2,4]triazolo[4,3-a]pyridin-6-yl)-2,2,2-trifluoroethyl)pyrrolidin-3-amine dihydrochloride]", "values": [
      {"measurement": "pIC50", "setting": "recombinant rat PIM-3", "result": 8.77},
      {"measurement": "pIC50", "setting": "[1]", "result": 6.02},
      {"measurement": "pIC50", "setting": "PIM-1", "result": 9.40}
    ]},
    {"compound": "CC(C)N[C@H]1CCN(C(c2ccc3nnc(-c4ccc5cccc(OCC6CC6)c5n4)n3c2)C(F)(F)F)C1", "note": "(stereo partly drawn) [Example 32, (3S)-1-(1-(3-(8-(cyclopropylmethoxy)quinolin-2-yl)-[1,2,4]triazolo[4,3-a]pyridin-6-yl)-2,2,2-trifluoroethyl)-N-isopropylpyrrolidin-3-amine dihydrochloride]", "values": [
      {"measurement": "pIC50", "setting": "recombinant rat PIM-3", "result": 8.00},
      {"measurement": "pIC50", "setting": "[1]", "result": 6.58},
      {"measurement": "pIC50", "setting": "PIM-1", "result": 9.28}
    ]},
    {"compound": "COCC(C)(COC)c1cccc2ccc(-c3nnc4ccc([C@@H](N5CC[C@H](N)C5)C(F)(F)F)cn34)nc12", "note": "[Example 110, (S)-1-((R)-1-(3-(8-(1,3-dimethoxy-2-methylpropan-2-yl)quinolin-2-yl)-[1,2,4]triazolo[4,3-a]pyridin-6-yl)-2,2,2-trifluoroethyl)pyrrolidin-3-amine dihydrochloride]", "values": [
      {"measurement": "pIC50", "setting": "recombinant rat PIM-3", "result": 8.74},
      {"measurement": "pIC50", "setting": "[1]", "result": 7.02},
      {"measurement": "pIC50", "setting": "PIM-1", "result": 9.72}
    ]},
    {"compound": "COc1ccc2ccc(-c3nnc4ccc([C@@H](N5CC[C@H](N)C5)C(F)(F)F)cn34)nc2c1C", "note": "[Example 124, (S)-1-((R)-2,2,2-trifluoro-1-(3-(7-methoxy-8-methylquinolin-2-yl)-[1,2,4]triazolo[4,3-a]pyridin-6-yl)ethyl)pyrrolidin-3-amine hydrochloride]", "values": [
      {"measurement": "pIC50", "setting": "recombinant rat PIM-3", "result": 9.15},
      {"measurement": "pIC50", "setting": "[1]", "result": "< 7.00"},
      {"measurement": "pIC50", "setting": "PIM-1", "result": 9.68}
    ]},
    {"compound": "FC(F)(F)[C@@H](c1ccc2nnc(-c3ccc4cccc(OCC5CC5)c4n3)n2c1)N1C[C@@H]2C[C@H]1CN2", "note": "[Example 67, 2-(6-((R)-1-((1S,4S)-2,5-diazabicyclo[2.2.1]heptan-2-yl)-2,2,2-trifluoroethyl)-[1,2,4]triazolo[4,3-a]pyridin-3-yl)-8-(cyclopropylmethoxy)quinoline dihydrochloride]", "values": [
      {"measurement": "pIC50", "setting": "recombinant rat PIM-3", "result": 8.49},
      {"measurement": "pIC50", "setting": "[1]", "result": 7.20},
      {"measurement": "pIC50", "setting": "PIM-1", "result": 8.79}
    ]},
    {"compound": "Cc1c(-c2cnn(C)c2C)ccc2ccc(-c3nnc4ccc([C@@H](N5CC[C@H](N)C5)C(F)(F)F)cn34)nc12", "note": "[Example 214, (3S)-1-((1R)-1-(3-(7-(1,5-dimethyl-1H-pyrazol-4-yl)-8-methylquinolin-2-yl)-[1,2,4]triazolo[4,3-a]pyridin-6-yl)-2,2,2-trifluoroethyl)pyrrolidin-3-amine dihydrochloride]", "values": [
      {"measurement": "pIC50", "setting": "recombinant rat PIM-3", "result": 9.40},
      {"measurement": "pIC50", "setting": "[1]", "result": 6.86},
      {"measurement": "pIC50", "setting": "PIM-1", "result": 9.42}
    ]}
  ]
}
